Results from patent US20230108906A1, “SUBSTITUTED BICYCLIC AND TRICYCLIC UREAS AND AMIDES, ANALOGUES THEREOF, AND METHODS USING SAME” (Arbutus Biopharma Corporation, priority 2019, published 2023).
pEC50: −log10 of the molar value.

What follows are compounds tested on HBV rcDNA in HepDE19 cells (assay: HepDE19 assay with bDNA quantitation of HBV rcDNA). Details: Hepatitis B virus, HepDE19, 168 h, inhibition of rcDNA formation in HepDE19 cells (HepG2 derived), Tet-free medium, 7 day incubation, Quantigene 2.0 bDNA readout, top concentration 25 μM; read-out: DE-19bDNA EC50.
Type: cell-based, hepatitis B virus (HBV)
Method: HepDE19 Assay with bDNA Quantitation of HBV rcDNA:
HepDE19 cell culture system is a HepG2 (human hepatocarcinoma) derived cell line that supports HBV DNA replication and cccDNA formation in a tetracycline (Tet)-regulated manner and produces HBV rcDNA and a detectable reporter molecule dependent on the production and maintenance of cccDNA (Guo, et al., 2007, J. Virol. 81:12472-12484).
HepDE19 (50,000 cells/well) were plated in 96-well collagen-coated tissue-culture treated microtiter plates in DMEM/F12 medium supplemented with 10% fetal bovine serum, 1% penicillin-streptomycin and 1 μg/mL tetracycline and incubated in a humidified incubator at 37° C. and 5% CO2 overnight. Next day, the cells were switched to fresh medium without tetracycline and incubated for 4 hours at 37° C. and 5% CO2. The cells were treated with fresh Tet-free medium with compounds at concentrations starting at 25 μM and a serial, […], 8-point, titration series in duplicate. The final DMSO concentration in the assay was 0.5%. The plates were incubated for 7 days in a humidified incubator at 37° C. and 5% CO2. Following a 7 day-incubation, the level of rcDNA present in the inhibitor-treated wells was measured using a Quantigene 2.0 bDNA assay kit (Affymetrix, Santa Clara, Calif.) with HBV specific custom probe set and manufacturers instructions. Concurrently, the effect of compounds on cell viability was assessed using replicate plates, plated at a density of 5,000 cells/well and incubated for 4 days, to determine the ATP content as a measure of cell viability using the cell-titer glo reagent (CTG; Promega Corporation, Madison, Wis.) as per manufacturer's instructions. The plates were read using a Victor luminescence plate reader (PerkinElmer Model 1420 Multilabel counter) and the relative luminescence units (RLU) data generated from each well was calculated as % inhibition of the untreated control wells and analyzed using XL-Fit module in Microsoft Excel to determine EC50 and EC90 (bDNA) and CC50 (CTG) values using a 4-parameter curve fitting algorithm.
Representative compounds of the disclosure were tested for their abilities to inhibit formation of relaxed circular DNA (rcDNA) in a HepDE19 assay, as described elsewhere herein.

Compound | pEC50
CN(C(=O)Nc1ccc(F)c(C(F)F)c1)C1COCc2[nH]c(=O)c3cc(F)ccc3c21 (single isomer, unassigned) [Compound 123, 3-(3-(Difluoromethyl)-4-fluorophenyl)-1-(8-fluoro-6-oxo-1,4,5,6-tetrahydro-2H-pyrano[3,4-c]isoquinolin-1-yl)-1-methylurea] | 6.25
CN(C(=O)Nc1ccc(F)c(C(F)F)c1)[C@H]1COCc2[nH]c(=O)c3cc(F)c(F)cc3c21 (single isomer, unassigned) [Compound 125] | 6.31
CN(C(=O)Nc1ccc(F)c(C(F)F)c1)[C@@H]1COCc2[nH]c(=O)c3cc(F)c(F)cc3c21 (single isomer, unassigned) [Compound 126] | 8.00
N#Cc1cc(NC(=O)N[C@@H]2COCc3[nH]c(=O)c4cc(F)c(F)cc4c32)ccc1F (single isomer, unassigned) [Compound 135] | 7.30

Same assay, conditions: inhibition of rcDNA formation in HepDE19 cells (HepG2 derived), Tet-free medium, 7 day incubation, Quantigene 2.0 bDNA readout, top concentration 25 μM; read-out: DE-19bDNA EC50

Compound | pEC50
CN(C(=O)Nc1ccc(F)cc1)C1COCc2[nH]c(=O)c3cc(F)c(F)cc3c21 (single isomer, unassigned) [Compound 104, 1-(8,9-Difluoro-6-oxo-1,4,5,6-tetrahydro-2H-pyrano[3,4-c]isoquinolin-1-yl)-3-(4-fluorophenyl)-1-methylurea] | 7.70
CN(C(=O)Nc1cc(F)c(F)c(Cl)c1)C1COCc2[nH]c(=O)c3cc(F)ccc3c21 (single isomer, unassigned) [Compound 107, 3-(3-Chloro-4,5-difluorophenyl)-1-(8-fluoro-6-oxo-1,4,5,6-tetrahydro-2H-pyrano[3,4-c]isoquinolin-1-yl)-1-methylurea] | 6.03
CN(C(=O)Nc1cc(F)c(F)c(Cl)c1)C1COCc2[nH]c(=O)c3cc(F)ccc3c21 (single isomer, unassigned) [Compound 108, 3-(3-Chloro-4,5-difluorophenyl)-1-(8-fluoro-6-oxo-1,4,5,6-tetrahydro-2H-pyrano[3,4-c]isoquinolin-1-yl)-1-methylurea] | 7.70
O=C(Nc1ccc(F)c(Cl)c1)N(CCCO)C1COCc2[nH]c(=O)c3cc(F)ccc3c21 (single isomer, unassigned) [Compound 109, 3-(3-Chloro-4-fluorophenyl)-1-(8-fluoro-6-oxo-1,4,5,6-tetrahydro-2H-pyrano[3,4-c]isoquinolin-1-yl)-1-(3-hydroxypropyl)urea] | 6.21
O=C(Nc1ccc(F)c(Cl)c1)N(CCCO)C1COCc2[nH]c(=O)c3cc(F)ccc3c21 (single isomer, unassigned) [Compound 110, 3-(3-Chloro-4-fluorophenyl)-1-(8-fluoro-6-oxo-1,4,5,6-tetrahydro-2H-pyrano[3,4-c]isoquinolin-1-yl)-1-(3-hydroxypropyl)urea] | 7.70
CC(C)(O)CN(C(=O)Nc1ccc(F)c(Cl)c1)C1COCc2[nH]c(=O)c3cc(F)ccc3c21 (single isomer, unassigned) [Compound 111, 3-(3-Chloro-4-fluorophenyl)-1-(8-fluoro-6-oxo-1,4,5,6-tetrahydro-2H-pyrano[3,4-c]isoquinolin-1-yl)-1-(2-hydroxy-2-methylpropyl)urea] | 6.70
CC(C)(O)CN(C(=O)Nc1ccc(F)c(Cl)c1)C1COCc2[nH]c(=O)c3cc(F)ccc3c21 (single isomer, unassigned) [Compound 112, 3-(3-Chloro-4-fluorophenyl)-1-(8-fluoro-6-oxo-1,4,5,6-tetrahydro-2H-pyrano[3,4-c]isoquinolin-1-yl)-1-(2-hydroxy-2-methylpropyl)urea] | 5.72
CC(C)CN(C(=O)Nc1cc(F)c(F)c(F)c1)C1COCc2[nH]c(=O)c3cc(F)ccc3c21 (single isomer, unassigned) [Compound 113, 1-(8-Fluoro-6-oxo-2,4,5,6-tetrahydro-1H-pyrano[3,4-c]isoquinolin-1-yl)-1-isobutyl-3-(3,4,5-trifluorophenyl)urea] | 7.70
CC(C)CN(C(=O)Nc1cc(F)c(F)c(F)c1)C1COCc2[nH]c(=O)c3cc(F)ccc3c21 (single isomer, unassigned) [Compound 114, 1-(8-Fluoro-6-oxo-2,4,5,6-tetrahydro-1H-pyrano[3,4-c]isoquinolin-1-yl)-1-isobutyl-3-(3,4,5-trifluorophenyl)urea] | 6.39
CC(C)CN(C(=O)Nc1ccc(F)c(C#N)c1)C1COCc2[nH]c(=O)c3cc(F)ccc3c21 (single isomer, unassigned) [Compound 115, 3-(3-Cyano-4-fluorophenyl)-1-(8-fluoro-6-oxo-1,4,5,6-tetrahydro-2H-pyrano[3,4-c]isoquinolin-1-yl)-1-isobutylurea] | 8.00
CC(C)CN(C(=O)Nc1ccc(F)c(C#N)c1)C1COCc2[nH]c(=O)c3cc(F)ccc3c21 (single isomer, unassigned) [Compound 116, 3-(3-Cyano-4-fluorophenyl)-1-(8-fluoro-6-oxo-1,4,5,6-tetrahydro-2H-pyrano[3,4-c]isoquinolin-1-yl)-1-isobutylurea] | 6.64
CN(C(=O)Nc1ccc(F)c(F)c1)C1COCc2[nH]c(=O)c3cc(F)c(F)cc3c21 (single isomer, unassigned) [Compound 117, 1-(8,9-Difluoro-6-oxo-1,4,5,6-tetrahydro-2H-pyrano[3,4-c]isoquinolin-1-yl)-3-(3,4-difluorophenyl)-1-methylurea] | 5.57
CN(C(=O)Nc1ccc(F)c(F)c1)C1COCc2[nH]c(=O)c3cc(F)c(F)cc3c21 (single isomer, unassigned) [Compound 118, 1-(8,9-Difluoro-6-oxo-1,4,5,6-tetrahydro-2H-pyrano[3,4-c]isoquinolin-1-yl)-3-(3,4-difluorophenyl)-1-methylurea] | 8.00
CC(C)CN(C(=O)Nc1ccc(F)c(C#N)c1)C1COCc2[nH]c(=O)c3cc(F)c(F)cc3c21 (single isomer, unassigned) [Compound 121, 3-(3-Cyano-4-fluorophenyl)-1-(8,9-difluoro-6-oxo-1,4,5,6-tetrahydro-2H-pyrano[3,4-c]isoquinolin-1-yl)-1-isobutylurea] | 8.00
CC(C)CN(C(=O)Nc1ccc(F)c(C#N)c1)C1COCc2[nH]c(=O)c3cc(F)c(F)cc3c21 (single isomer, unassigned) [Compound 122, 3-(3-Cyano-4-fluorophenyl)-1-(8,9-difluoro-6-oxo-1,4,5,6-tetrahydro-2H-pyrano[3,4-c]isoquinolin-1-yl)-1-isobutylurea] | 6.92
Cc1cc(NC(=O)N(CC(C)C)C2COCc3[nH]c(=O)c4cc(F)ccc4c32)ccc1F (single isomer, unassigned) [Compound 131, 3-(4-Fluoro-3-methylphenyl)-1-(8-fluoro-6-oxo-1,4,5,6-tetrahydro-2H-pyrano[3,4-c]isoquinolin-1-yl)-1-isobutylurea] | 8.00
Cc1cc(NC(=O)N(CC(C)C)C2COCc3[nH]c(=O)c4cc(F)ccc4c32)ccc1F (single isomer, unassigned) [Compound 132, 3-(4-Fluoro-3-methylphenyl)-1-(8-fluoro-6-oxo-1,4,5,6-tetrahydro-2H-pyrano[3,4-c]isoquinolin-1-yl)-1-isobutylurea] | 6.82
CN(C(=O)Nc1cc(F)c(F)c(F)c1)C1COCc2[nH]c(=O)c3cc(F)c(F)cc3c21 (single isomer, unassigned) [Compound 133, 1-(8,9-Difluoro-6-oxo-1,4,5,6-tetrahydro-2H-pyrano[3,4-c]isoquinolin-1-yl)-1-methyl-3-(3,4,5-trifluorophenyl)urea] | 7.70
CN(C(=O)Nc1cc(F)c(F)c(F)c1)C1COCc2[nH]c(=O)c3cc(F)c(F)cc3c21 (single isomer, unassigned) [Compound 134, 1-(8,9-Difluoro-6-oxo-1,4,5,6-tetrahydro-2H-pyrano[3,4-c]isoquinolin-1-yl)-1-methyl-3-(3,4,5-trifluorophenyl)urea] | 6.00

Same assay, conditions: read-out: DE-19bDNA EC50; inhibition of rcDNA formation in HepDE19 cells (HepG2 derived), Tet-free medium, 7 day incubation, Quantigene 2.0 bDNA readout, top concentration 25 μM

Compound | pEC50
CN(C(=O)Nc1cccc(Cl)c1)C1COCc2[nH]c(=O)c3cc(F)c(F)cc3c21 (single isomer, unassigned) [Compound 119, 3-(3-Chlorophenyl)-1-(8,9-difluoro-6-oxo-1,4,5,6-tetrahydro-2H-pyrano[3,4-c]isoquinolin-1-yl)-1-methylurea] | 5.74
CN(C(=O)Nc1cccc(Cl)c1)C1COCc2[nH]c(=O)c3cc(F)c(F)cc3c21 (single isomer, unassigned) [Compound 120, 3-(3-Chlorophenyl)-1-(8,9-difluoro-6-oxo-1,4,5,6-tetrahydro-2H-pyrano[3,4-c]isoquinolin-1-yl)-1-methylurea] | 8.00
